Results published in patent publication US20080182859A1 (Curis, Inc., priority 2006, published 2008).
Counter-ions that a name gives are not always drawn.

Legend:
Type in all cases: cell-based
sonic hedgehog pathway [1] = assay: Human hedgehog reporter assay HEPM-GliLuc (HGL); settings: HepM human embryonic palatal mesenchymal cells, Gli-luciferase reporter
Excerpt: (§1) Mouse (TM3: mouse Leydig cells; S12: mouse embryonic mesenchymal cells) and human (Daoy: human medulloblastoma cell; HepM: human embryonic palatal mesenchymal cell) cell lines are used to screen small molecules for their ability to modulate the activity of the sonic hedgehog pathway (Table 1, Table 2, and Table 3). Stable hedgehog pathway reporter cell lines are established by specific antibiotic selection following transfection of a reporter plasmid containing a luciferase gene located directly downstream from the gli promoter. Consequently, any observable changes in cellular luciferase activity may be attributed to changes in sonic hedgehog pathway activity in mouse and human cells, respectively, since gli is the major by-product of this pathway. To calculate activity, we generate an eleven point dose curve for each compound using 1:3 dilutions in 96 well assay plates. Each plate tested also contains low and high control to establish maximal pathway activation so to establish/compare a percentage activation of each tested compound (AMAX) on respective plates. Also we calculate EC50 values, or a concentration where the pathway will be exactly 50% activated, for each tested compound to determine potency. In these cell lines, compounds that register >20% AMAX values are considered active.
(§2) Stable hedgehog pathway reporter cell lines are established following specific antibiotic selection following transfection of a reporter plasmid In short, typically cells are plated in MicroTiter-plates at 10,000-20,000 cells per well, in growth media (containing 10%-20% FBS). After 48-72 hrs (HGL and DGL respectively) the media in the assay plates is switched to low-serum containing media (0.5% FBS). At that time compounds are added (at 1-5 μM) to the assay plates, in the presence or absence of hedgehog protein (octyl-modified version; 1-5 ng/ml). After another 24 hrs of incubation, the media from the assay plates is discarded and replaced with luciferase assay-mix. Subsequently, plates are incubated at RT for ˜15-30 mins and then read in a luminometer. [note: addition of the Hedgehog protein, although not critical, will sensitize the assay allowing the identification of weak actives].

sonic hedgehog pathway [2] = assay: Hedgehog pathway Gli-luciferase reporter assay, TM3 cells; settings: TM3 mouse Leydig cells
Excerpt: as §1, §2

sonic hedgehog pathway [3] = assay: Human hedgehog reporter assay Daoy-GliLuc (DGL); settings: Daoy human medulloblastoma cells, Gli-luciferase reporter; read-out: Daoy Avg. EC50
Excerpt: as §1, §2

Row | Compound | EC50 (sonic hedgehog pathway [1]) [µM] | EC50 (sonic hedgehog pathway [2]) [µM] | EC50 (sonic hedgehog pathway [3]) [µM]
1 | CN[C@H]1CC[C@@H](N(Cc2cc(-c3ccnc(C)c3)ccc2OC)C(=O)c2sc3ccccc3c2Cl)CC1 [331 (R11)] | < 0.05 | < 0.05 | 
2 | CN[C@H]1CC[C@@H](N(Cc2cc(-c3ccncc3)ccc2OC)C(=O)c2sc3ccccc3c2Cl)CC1 [339 (R12)] | < 0.05 | < 0.05 | 
3 | CN[C@H]1CC[C@@H](N(Cc2cc(-c3ccc(C)nc3)ccc2OC)C(=O)c2sc3ccccc3c2Cl)CC1 [Compound 320, 3-Chloro-benzo[b]thiophene-2-carboxylic acid [2-methoxy-5-(6-methyl-pyridin-3-yl)-benzyl]-(4-methylamino-cyclohexyl)-amide dihydrochloride] | < 0.05 | < 0.05 | 
4 | CN[C@H]1CC[C@@H](N(Cc2cc(-c3cccc(C#N)c3)ccc2OC)C(=O)c2sc3c(F)ccc(F)c3c2Cl)CC1 [Compound 337, 3-Chloro-4,7-difluoro-benzo[b]thiophene-2-carboxylic acid (3′-cyano-4-methoxy-biphenyl-3-ylmethyl)-(4-methylamino-cyclohexyl)-amide hydrochloride] | < 0.05 | < 0.05 | 
5 | CCOc1ccc(-c2ccc(C(=O)C(F)(F)F)cc2)cc1CN(C(=O)c1sc2c(F)ccc(F)c2c1Cl)[C@H]1CC[C@@H](NC)CC1 [Compound 341, 3-Chloro-4,7-difluoro-benzo[b]thiophene-2-carboxylic acid [4-ethoxy-4′-(2,2,2-trifluoro-acetyl)-biphenyl-3-ylmethyl]-(4-methylamino-cyclohexyl)-amide trifluoroacetate] | 0.05 to 0.25 | < 0.05 | 
6 | CN[C@H]1CC[C@@H](N(Cc2cc(-c3ccc(C#N)cc3)ccc2OC)C(=O)c2sc3c(F)ccc(F)c3c2Cl)CC1 [Compound 351, 3-Chloro-4,7-difluoro-benzo[b]thiophene-2-carboxylic acid (4′-cyano-4-methoxy-biphenyl-3-ylmethyl)-(4-methylamino-cyclohexyl)-amide hydrochloride] | < 0.05 | < 0.05 | 
7 | CN[C@H]1CC[C@@H](N(Cc2cc(-c3cccc(C(C)=O)c3)ccc2OC)C(=O)c2sc3c(F)ccc(F)c3c2Cl)CC1 [Compound 364, 3-Chloro-4,7-difluoro-benzo[b]thiophene-2-carboxylic acid (3′-acetyl-4-methoxy-biphenyl-3-ylmethyl)-(4-methylamino-cyclohexyl)-amide hydrochloride] | < 0.05 | < 0.05 | 
8 | CCOc1ccc(-c2ccc(N)nc2)cc1CN(C(=O)c1sc2ccccc2c1Cl)[C@H]1CC[C@H](NC)CC1 [Compound 396, 3-Chloro-benzo[b]thiophene-2-carboxylic acid [2-ethoxy-5-(6-amino-pyridin-3-yl)-benzyl]-(4-methylamino-cyclohexyl)-amide dihydrochloride] | 0.05 to 0.25 | 0.25 to 1 | 
9 | CNc1ccc(-c2ccc(OC)c(CN(C(=O)c3sc4ccccc4c3Cl)[C@H]3CC[C@H](NC)CC3)c2)cn1 [Compound 397, 3-Chloro-benzo[b]thiophene-2-carboxylic acid [2-methoxy-5-(6-methylamino-pyridin-3-yl)-benzyl]-(4-methylamino-cyclohexyl)-amide dihydrochloride] | 0.25 to 1 | 0.25 to 1 | 
10 | CCOc1ccc(-c2cc(C)nc(C)c2)cc1CN(C(=O)c1sc2ccccc2c1Cl)[C@H]1CC[C@H](NC)CC1 [Compound 400, 3-Chloro-benzo[b]thiophene-2-carboxylic acid [5-(2,6-dimethyl-pyridin-4-yl)-2-ethoxy-benzyl]-(4-methylamino-cyclohexyl)-amide dihydrochloride] | 0.25 to 1 | 0.25 to 1 | 
11 | CCOc1ccc(-c2ccc(N)nc2C)cc1CN(C(=O)c1sc2ccccc2c1Cl)[C@H]1CC[C@H](NC)CC1 [Compound 403, 3-Chloro-benzo[b]thiophene-2-carboxylic acid [5-(6-amino-2-methyl-pyridin-3-yl)-2-ethoxy-benzyl]-(4-methylamino-cyclohexyl)-amide dihydrochloride] | 0.25 to 1 | 1 to 2.5 | 
12 | CCOc1ccc(-c2ccc(N(C)C)nc2)cc1CN(C(=O)c1sc2ccccc2c1Cl)[C@H]1CC[C@H](NC)CC1 [Compound 404, 3-Chloro-benzo[b]thiophene-2-carboxylic acid [5-(6-dimethylamino-pyridin-3-yl)-2-ethoxy-benzyl]-(4-methylamino-cyclohexyl)-amide bis(trifluoroacetate)] | 0.25 to 1 | 1 to 2.5 | 
13 | CN[C@H]1CC[C@H](N(Cc2cc(-c3ccc(N(C)C)nc3)ccc2OC)C(=O)c2sc3ccccc3c2Cl)CC1 [Compound 405, 3-Chloro-benzo[b]thiophene-2-carboxylic acid [5-(6-dimethylamino-pyridin-3-yl)-2-methoxy-benzyl]-(4-methylamino-cyclohexyl)-amide bis(trifluoroacetate)] | 0.25 to 1 | 1 to 2.5 | 
14 | CN[C@H]1CC[C@H](N(Cc2cc(-c3ccc(C)nc3)ccc2OC)C(=O)c2sc3cccc(F)c3c2Cl)CC1 [Compound 406, 3-Chloro-4-fluoro-benzo[b]thiophene-2-carboxylic acid [2-methoxy-5-(6-methyl-pyridin-3-yl)-benzyl]-(4-methylamino-cyclohexyl)-amide dihydrochloride] | 0.05 to 0.25 | < 0.05 | 
15 | CN[C@H]1CC[C@H](N(Cc2cc(-c3cccc(C#N)c3)ccc2F)C(=O)c2sc3ccccc3c2Cl)CC1 [Compound 420, 3-Chloro-benzo[b]thiophene-2-carboxylic acid (3′-cyano-4-fluoro-biphenyl-3-ylmethyl)-(4-methylamino-cyclohexyl)-amide trifluoroacetate] |  | 0.05 to 0.25 | 0.05 to 0.25
16 | CN[C@H]1CC[C@H](N(Cc2cc(-c3ccc(C#N)cc3)ccc2F)C(=O)c2sc3ccccc3c2Cl)CC1 [Compound 423, 3-Chloro-benzo[b]thiophene-2-carboxylic acid (4′-cyano-4-fluoro-biphenyl-3-ylmethyl)-(4-methylamino-cyclohexyl)-amide trifluoroacetate] |  | 0.25 to 1 | 0.25 to 1
17 | CN[C@H]1CC[C@H](N(Cc2cc(-c3ccccc3)ccc2F)C(=O)c2sc3ccccc3c2Cl)CC1 [Compound 425, 3-Chloro-benzo[b]thiophene-2-carboxylic acid (4-fluoro-biphenyl-3-ylmethyl)-(4-methylamino-cyclohexyl)-amide trifluoroacetate] |  | < 0.05 | < 0.05
18 | CN[C@H]1CC[C@H](N(Cc2cc(-c3ccc(N(C)C=O)cc3)ccc2F)C(=O)c2sc3ccccc3c2Cl)CC1 [Compound 426, 3-Chloro-benzo[b]thiophene-2-carboxylic acid [4-fluoro-4′-(formyl-methyl-amino)-biphenyl-3-ylmethyl]-(4-methylamino-cyclohexyl)-amide trifluoroacetate] |  | < 0.05 | 0.05 to 0.25
19 | CN[C@H]1CC[C@H](N(Cc2cc(-c3ccc(C(O)C(F)(F)F)cc3)ccc2F)C(=O)c2sc3ccccc3c2Cl)CC1 (stereo partly shown) [Compound 433, 3-Chloro-benzo[b]thiophene-2-carboxylic acid [4-fluoro-4′-(2,2,2-trifluoro-1-hydroxy-ethyl)-biphenyl-3-ylmethyl]-(4-methylamino-cyclohexyl)-amide hydrochloride] |  | < 0.05 | < 0.05
20 | CN[C@H]1CC[C@H](N(Cc2cc(-c3ccc(C(=O)C(F)(F)F)cc3)ccc2F)C(=O)c2sc3c(F)ccc(F)c3c2Cl)CC1 [Compound 434, 3-Chloro-4,7-difluoro-benzo[b]thiophene-2-carboxylic acid [4-fluoro-4′-(2,2,2-trifluoro-acetyl)-biphenyl-3-ylmethyl]-(4-methylamino-cyclohexyl)-amide hydrochloride] |  | < 0.05 | < 0.05
21 | CN[C@H]1CC[C@@H](N(Cc2cc(-c3cc(C)nc(C)c3)ccc2OC)C(=O)c2sc3ccccc3c2Cl)CC1 [Compound R1, 3-Chloro-benzo[b]thiophene-2-carboxylic acid [5-(2,6-dimethyl-pyridin-4-yl)-2-methoxy-benzyl]-(4-methylamino-cyclohexyl)-amide dihydrochloride] | 0.05 to 0.25 | < 0.05 | 
22 | CCOc1ccc(-c2ccc(C#N)cc2)cc1CN(C(=O)c1sc2ccccc2c1Cl)[C@H]1CC[C@@H](NC)CC1 [Compound R2, 3-Chloro-benzo[b]thiophene-2-carboxylic acid (4′-cyano-4-ethoxy-biphenyl-3-ylmethyl)-(4-methylamino-cyclohexyl)-amide hydrochloride] | 0.05 to 0.25 | 0.05 to 0.25 | 
23 | CCOc1ccc(-c2ccc(C)nc2)cc1CN(C(=O)c1sc2ccccc2c1Cl)[C@H]1CC[C@@H](NC)CC1 [Compound R4, 3-Chloro-benzo[b]thiophene-2-carboxylic acid [2-ethoxy-5-(6-methyl-pyridin-3-yl)-benzyl]-(4-methylamino-cyclohexyl)-amide dihydrochloride] | 0.05 to 0.25 | 0.05 to 0.25 | 
